Assay results from patent US9623039B2, “Treatment and prevention of pathological conditions using iduna related techniques and compositions” (VALTED, LLC, priority 2010, dated 2017).
Each block holds one compound with its values, some of them ahead of it. Where a SMILES comes first, the peptide text is derived from it. The star is where a group is joined. Cbz = O=C(OCc1ccccc1)*; CH2F = FC*

Experiments:
PAR polymer = PAR polymer overlay / dot blot (far western); format: binding; conditions: PAR polymer overlay assay
Text: PAR binding is specified by a sequence of approximately 20 amino acids containing N-terminal basic amino acids and a C-terminal region containing alternating hydrophobic and basic amino acids (FIG. 24). Iduna contains a predicted PAR polymer binding sequence within amino acids 144-167 of the WWE domain (FIGS. 1 and 24). The PAR-binding domain was defined by comparing to the consensus sequence for PAR-binding and the known PAR binding domain of Histone 3 (FIG. 24). HEK293 cells were transfected with GFP, GFP-Iduna lacking the WWE domain (GFP-IdunaΔWWE), GFP-Iduna lacking the RF domain (GFP-IdunaARF), and full-length GFP-Iduna, followed by immunoprecipitation with a GFP antibody. […] Only GFP-Iduna-ARF and full-length GFP-Iduna can co-immunoprecipiate PAR binding proteins (FIG. 25). The critical amino acids in the PAR binding domain, 156Y and 157R, were mutated to 156A and 157A in full length Iduna (Iduna-YRAA). […] Similar results are obtained with a biotin-tagged PAR polymer followed by detection with an anti-biotin antibody (FIG. 26). […] Histone H3 is a known PAR binding protein and was used as a positive control for the PAR overlay assay. […] An assay based on electrophorectic mobility shift (EMSA) for PAR binding was developed to monitor PAR polymer binding to Iduna. […]

PARP-1 = molecular target: T1, PARP-1 (Homo sapiens, UniProt P09874); assay: Chemiluminescent PARP assay (biotinylated PAR onto histone); format: biochemical; conditions: incorporation of biotinylated PAR onto histone proteins
T1 construct: purchased Trevigen
T1 sequence (P09874 whole entry): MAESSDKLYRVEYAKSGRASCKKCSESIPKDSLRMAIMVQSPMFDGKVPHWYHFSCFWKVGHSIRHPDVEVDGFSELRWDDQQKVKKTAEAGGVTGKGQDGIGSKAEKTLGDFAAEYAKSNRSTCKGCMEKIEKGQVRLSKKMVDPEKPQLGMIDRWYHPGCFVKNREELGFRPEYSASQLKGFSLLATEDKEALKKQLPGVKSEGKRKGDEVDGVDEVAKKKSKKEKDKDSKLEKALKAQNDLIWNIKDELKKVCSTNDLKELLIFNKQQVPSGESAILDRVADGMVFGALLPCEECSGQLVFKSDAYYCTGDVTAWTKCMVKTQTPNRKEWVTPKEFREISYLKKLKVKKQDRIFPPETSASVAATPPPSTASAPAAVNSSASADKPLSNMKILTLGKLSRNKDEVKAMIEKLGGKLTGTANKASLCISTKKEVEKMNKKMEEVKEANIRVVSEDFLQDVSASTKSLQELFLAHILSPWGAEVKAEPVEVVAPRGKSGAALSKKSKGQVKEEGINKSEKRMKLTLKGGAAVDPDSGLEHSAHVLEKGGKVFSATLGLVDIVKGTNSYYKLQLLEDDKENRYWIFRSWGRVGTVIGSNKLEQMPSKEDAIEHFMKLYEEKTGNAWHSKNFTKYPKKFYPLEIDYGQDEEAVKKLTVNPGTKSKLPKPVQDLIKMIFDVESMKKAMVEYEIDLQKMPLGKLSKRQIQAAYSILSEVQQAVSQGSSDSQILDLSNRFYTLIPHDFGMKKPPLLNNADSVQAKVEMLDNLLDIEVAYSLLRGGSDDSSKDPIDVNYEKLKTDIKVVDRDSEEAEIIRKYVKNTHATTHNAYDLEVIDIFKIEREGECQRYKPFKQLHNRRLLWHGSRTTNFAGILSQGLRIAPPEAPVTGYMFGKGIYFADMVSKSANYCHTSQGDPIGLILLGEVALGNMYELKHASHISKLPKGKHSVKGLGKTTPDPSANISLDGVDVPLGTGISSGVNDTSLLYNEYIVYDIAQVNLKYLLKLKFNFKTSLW
Description: Because PARP-1 activation plays a prominent role in NMDA excitotoxicity we tested whether PARP-1 activity is directly affected by Iduna. PARP-1 activity was assessed by incorporation of biotinylated PAR onto histone proteins.
Chemiluminescent PARP assay for poly(ADP-ribosyl)ation of Histone H1: Activity of PARP-1 was determined by Trevigen Universal chemiluminescent PARP assay kit (Trevigen, Gaithersburg, Md., USA) in the presence of Iduna or the PARP-1 inhibitor 3-aminobenzamide (3-AB). According to manufacturer's instructions, the incorporation of biotinylated NAD+ (Trevigen) into the poly(ADP-ribose) polymer primed at solid phase immobilized histone H1 (Trevigen) was detected by the chemiluminescent assay, either in the presence or absence of recombinant Iduna. Reactions were performed with 34 μM total biotinylated NAD+ for 60 min at 25° C. in triplicates. Chemiluminescence was measured using a fluorescence multi-well plate reader (SOSTmax, Sunnyvale, Calif.) with an excitation at 544 nm excitation/590 nm emission. In the parallel wells, PARP1 activity was measured after the 3-aminobenzamide treatment at the same concentration of biotinylated NAD+ (34 μM).

primary neurons = assay: H2O2-induced cell death in primary neurons; format: cell-based, mouse
Description: FIGS. 44 and 45—Iduna protects against peroxide-induced cell death in primary neurons. Primary neuronal cultures were transduced with lentiviruses expressing GFP, GFP-Iduna or GFP-Iduna-YRAA. 4 days following lentiviral transduction, cultures were treated with H2O2 (100 μM or 500 μM) and cell death assessed 24 h later using PI and Hoechst staining.
Cell Death Assessment: Following exposure of neuronal cultures to the various treatments neuronal survival was quantified and presented as percent of cell death. Percent cell death was determined as the ratio of live-to-dead cells compared with the percent cell death in control wells to account for cell death attributable to mechanical stimulation of the cultures. Quantification of neuronal survival was determined by staining treated cultures with 5 μM Hoechst 33342 and 2 μM propidium iodide (PI) (Invitrogen, Carlsbad, Calif.). Culture plates were placed on a mechanized stage of a Zeiss microscope and photomicrographs were collected by a blinded observer. The numbers of total and dead (PI positive) cells were counted by automated computer assisted software (Axiovision 4.6, Zeiss, Germany). The raw counts are presented in an Excel file for generation of percent cell death and statistical analysis. Glial nuclei fluoresce at a lower intensity than neuronal nuclei and were gated out by the software program. […]

neuronal cultures = assay: Caspase-dependent cell death (camptothecin, staurosporine) in neuronal cultures; format: cell-based, mouse; conditions: for protection against cell death: 24 h
Description: (§1) FIG. 42—Neuronal cultures expressing lenti-viral mediated GFP, GFP-Iduna or GFP-Iduna-YRAA were treated with camptothecin (CPT, 20 μM) and cell death assessed 24 h later using PI and Hoechst staining. […] Data represent the mean±SEM, n=4 of two independent experiments. *p<0.05 by ANOVA with Tukey-Kramer's posthoc test.
as §1, with “43—Neuronal” for “42—Neuronal”, “staurosporine (STS, 500 nM)” for “camptothecin (CPT, 20 μM)”
Cell Death Assessment: Following exposure of neuronal cultures to the various treatments neuronal survival was quantified and presented as percent of cell death. Percent cell death was determined as the ratio of live-to-dead cells compared with the percent cell death in control wells to account for cell death attributable to mechanical stimulation of the cultures. Quantification of neuronal survival was determined by staining treated cultures with 5 μM Hoechst 33342 and 2 μM propidium iodide (PI) (Invitrogen, Carlsbad, Calif.). Culture plates were placed on a mechanized stage of a Zeiss microscope and photomicrographs were collected by a blinded observer. The numbers of total and dead (PI positive) cells were counted by automated computer assisted software (Axiovision 4.6, Zeiss, Germany). The raw counts are presented in an Excel file for generation of percent cell death and statistical analysis. Glial nuclei fluoresce at a lower intensity than neuronal nuclei and were gated out by the software program. At least two separate experiments using four separate wells were performed for all data points.

MCF7 cells = assay: Laser micro-irradiation-induced DNA damage, recruitment of GFP-Iduna; format: cell-based, human; conditions: 405 nm laser microirradiation
Description: Live-cell imaging and Laser micro-irradiation-induced DNA damage: For induction of localized DNA damage, MCF 7 cells stably expressing GFP-Iduna or GFP-Iduna-YRAA were plated onto 25 mm glass bottom culture dishes for 48 h. Cells were presensitized with 10 μM 5-bromo-2′-deoxyuridine (BrdU, Sigma) for 24 h. Cells were incubated with 2 μM Hoechst (Invitrogen) for 5 min and mounted on a preheated (37° C.) stage on a Zeiss LSM 710 confocal microscope equipped with 405 nm laser source. A laser microbeam was focused on a small rectangular strip of nucleus through 63× oil objective to induce localized DNA damage. The laser setting was set to 100% power output with a scanning speed of 1 and 6-10 laser iterations. The kinetics were calculated using Zeiss Zen 2010 software. Time point before irradiation represents—1 min and the time point just after irradiation represent 0 min. Each data series was normalized with respect to base line data intensity values.

Compound: Iduna 144-167: synthesized peptide fragment of the predicted PAR polymer binding sequence, amino acids 144-167 of the WWE domain (LYVADLENMVQYRRNEHGRRRKIK; UniProt Q9NTX7 144-167, looked up, fragment)
PAR polymer binding (PAR polymer): binds to PAR polymer in a manner comparable to full-length Iduna

PARP-1 activity (PARP-1): inhibits PARP-1 activity
Compound: NC(=O)c1cccc(N)c1 [3-AB, 3-aminobenzamide, reference compound]

Compound: O=C1NCCc2c(OCCCCN3CCCCC3)cccc21 [DPQ]
protection against H2O2 toxicity (primary neurons; 100 μM H2O2): only protected against 100 μM H2O2 toxicity | protection against H2O2 toxicity (primary neurons; 500 μM H2O2): Neither GFP-Iduna nor DPQ protect

Compound: COC(=O)C[C@H](NC(=O)[C@H](C)NC(=O)[C@@H](NC(=O)OCc1ccccc1)C(C)C)C(=O)CF [z-VAD fmk] (Cbz-Val-Ala-Asp(OMe)-CH2F)
protection against cell death (neuronal cultures; camptothecin 20 μM): provides protection | apoptotic cell death (neuronal cultures; staurosporine 500 nM or camptothecin 20 μM): inhibited cell death | protection against cell death (neuronal cultures; staurosporine 500 nM): provides protection

Compound: CN(C)Cc1ccc(-c2nc3cccc4c3n2CCNC4=O)cc1 [AG14361]
recruitment of GFP-Iduna to laser-induced DNA breaks (MCF7 cells): blocks the translocation of Iduna
